Test [1] concerns Mycobacterium tuberculosis TN1618. In kind it is cell-based.
Test [2] concerns Mycobacterium tuberculosis TN565. Format: cell-based.

In brackets after ≈: the same amount, converted by molar mass.

For `CC(N)C(=O)N(C)C(C)C(NC(=O)C(Cc1ccccc1)NC(=O)NC(Cc1c[nH]c2ccccc12)C(=O)O)C(=O)NCC1CC(O)C(n2ccc(=O)[nH]c2=O)O1` [Compound 164, 1-[5′-[(2S,3S)-N^3-L-Alanyl-N^2-[N-[[(1S)-1-carboxy-2-indol-3-ylethyl]carbamoyl]-L-phenylalanyl]-N^3-methyl-2,3-diaminobutyramido]-3′,5′-dideoxy-α-L-arabinofuranosyl]uracil], in test [1], the “MIC TN1618 (RESISTANT)” value amounted to 10 mg/L (≈ 12.7 µM). Also, in test [2], the “MIC TN565 (RESISTANT)” value came to 10 mg/L (≈ 12.7 µM).

As for `CC(C)C[C@H](NC(=O)N[C@@H](Cc1c[nH]c2ccccc12)C(=O)O)C(=O)N[C@H](C(=O)NC[C@H]1C[C@@H](O)[C@H](n2ccc(=O)[nH]c2=O)O1)[C@H](C)N(C)C(=O)CN` [Compound 109], the “MIC TN1618 (RESISTANT)” value in test [1] was found to be 10 mg/L (≈ 13.5 µM). Moreover, in test [2], the “MIC TN565 (RESISTANT)” value stood at 10 mg/L (≈ 13.5 µM).

For `CC(N)C(=O)N(C)C(C)C(NC(=O)C(Cc1ccc(C(F)(F)F)cc1)NC(=O)NC(Cc1c[nH]c2ccccc12)C(=O)O)C(=O)NCC1CC(O)C(n2ccc(=O)[nH]c2=O)O1` [Compound 146, 1-[5′-[(2S,3S)-N^3-L-Alanyl-N^2-[N-[[(1S)-1-carboxy-2-indol-3-ylethyl]carbamoyl]-L-4-(trifluoromethyl)phenylalanyl]-N^3-methyl-2,3-diaminobutyramido]-3′,5′-dideoxy-α-L-arabinofuranosyl]uracil], the “MIC TN1618 (RESISTANT)” value in test [1] worked out at 10 mg/L (≈ 11.7 µM). The “MIC TN565 (RESISTANT)” value in test [2] was 10 mg/L (≈ 11.7 µM).

In the case of `CSCCC(NC(=O)NC(Cc1ccc(O)cc1)C(=O)O)C(=O)NC(C(=O)NCC1CC(O)C(n2ccc(=O)[nH]c2=O)O1)C(C)N(C)C(=O)C(C)N` [Compound 115, 1-[5′[(2S,3S)-N^3-L-Alanyl-N^2-[N-[[(1S)-1-carboxy-4-hydroxyphenethyl)-carbamoyl]-L-methionyl]-N^3-methyl-2,3-diaminobutyramido]-3′,5′-dideoxy-α-L-arabinofuranosyl]uracil], in test [1], the “MIC TN1618 (RESISTANT)” value was found to be 30 mg/L (≈ 40 µM). Moreover, the “MIC TN565 (RESISTANT)” value in test [2] is over 30 mg/L.

`CC(N)C(=O)N(C)C(C)C(NC(=O)C(Cc1ccccc1)NC(=O)NC(Cc1ccc2ccccc2c1)C(=O)O)C(=O)NCC1CC(O)C(n2ccc(=O)[nH]c2=O)O1` [Compound 133, 1-[5′-[(2S,3S)-N^3-L-Alanyl-N^2-[N-[[(1S)-1-carboxy-2-naphthalenethyl]carbamoyl]-L-phenylalanyl]-N^3-methyl-2,3-diaminobutyramido]-3′,5′-dideoxy-α-L-arabinofuranosyl]uracil]: the “MIC TN1618 (RESISTANT)” value in test [1] turned out to be 10 mg/L (≈ 12.5 µM). Besides, the “MIC TN565 (RESISTANT)” value in test [2] is 30 mg/L (≈ 37.5 µM).

For the compound `CC(N)C(=O)N(C)C(C)C(NC(=O)C(Cc1ccc(F)cc1)NC(=O)NC(Cc1c[nH]c2ccccc12)C(=O)O)C(=O)NCC1CC(O)C(n2ccc(=O)[nH]c2=O)O1` [Compound 158, 1-[5′-[(2S,3S)-N^3-L-Alanyl-N^2-[N-[[(1S)-1-carboxy-2-indol-3-ylethyl]carbamoyl]-L-4-fluorophenylalanyl]-N^3-methyl-2,3-diaminobutyramidol-3′,5′-dideoxy-α-L-arabinofuranosyl]uracil], the “MIC TN1618 (RESISTANT)” value in test [1] turned out to be 10 mg/L (≈ 12.4 µM). In test [2], the “MIC TN565 (RESISTANT)” value was found to be 10 mg/L (≈ 12.4 µM).

As to `C[C@H](NC(=O)N[C@@H](Cc1c[nH]c2ccccc12)C(=O)O)C(=O)N[C@H](C(=O)N/C=C1/C[C@@H](O)[C@H](n2ccc(=O)[nH]c2=O)O1)[C@H](C)N(C)C(=O)[C@@H](N)Cc1cccc(O)c1` [Pacidamycin 4, reference compound], the “MIC TN1618 (RESISTANT)” value in test [1] was over 30 mg/L. Also, the “MIC TN565 (RESISTANT)” value in test [2] was over 30 mg/L.

Regarding `CC(N)C(=O)N(C)C(C)C(NC(=O)C(Cc1ccc(F)cc1)NC(=O)NC(Cc1ccc(O)cc1)C(=O)O)C(=O)NCC1CC(O)C(n2ccc(=O)[nH]c2=O)O1` [Compound 157, 1-[5′-[(2S,3S)-N^3-L-Alanyl-N^2-[N-[[(1S)-1-carboxy-4-hydroxyphenethyl]carbamoyl]-L-4-fluorophenylalanyl]-N^3-methyl-2,3-diaminobutyramido]-3′,5′-dideoxy-α-L-arabinofuranosyl]uracil], the “MIC TN1618 (RESISTANT)” value in test [1] was found to be 10 mg/L (≈ 12.7 µM). In addition, the “MIC TN565 (RESISTANT)” value in test [2] stood at 10 mg/L (≈ 12.7 µM).

Consider `CC(C)CC(N)C(=O)N(C)C(C)C(NC(=O)C(Cc1ccccc1)NC(=O)NC(Cc1c[nH]c2ccccc12)C(=O)O)C(=O)NCC1CC(O)C(n2ccc(=O)[nH]c2=O)O1` [Compound 159, 1-[5′-[(2S,3S)-N^2-[N-[[(1S)-1-Carboxy-2-indol-3-ylethyl]carbamoyl]-L-phenylalanyl]l-N^3-L-leucyl-N^3-methyl-2,3-diaminobutyramido]-3′,5′-dideoxy-α-L-arabinofuranosyl]uracil], for which, in test [1], the “MIC TN1618 (RESISTANT)” value amounted to 10 mg/L (≈ 12 µM). In test [2], the “MIC TN565 (RESISTANT)” value came out at 30 mg/L (≈ 36.1 µM).

In the case of `CC(N)C(=O)N(C)C(C)C(NC(=O)C(Cc1ccc(-c2ccccc2)cc1)NC(=O)NC(Cc1c[nH]c2ccccc12)C(=O)O)C(=O)NCC1CC(O)C(n2ccc(=O)[nH]c2=O)O1` [Compound 155, 1-[5′-[(2S,3S)-N^3-L-Alanyl-N^2-[N-[[(1S)-1-carboxy-2-indol-3-ylethyl)carbamoyl]-L-4-biphenylalanyl]-N^3-methyl-2,3-diaminobutyramidol-3′,5′-dideoxy-α-L-arabinofuranosyl]uracil], the “MIC TN1618 (RESISTANT)” value in test [1] turned out to be 10 mg/L (≈ 11.5 µM). Besides, the “MIC TN565 (RESISTANT)” value in test [2] was 10 mg/L (≈ 11.5 µM).

The values above are taken from patent US6482921B1, “Uridyl peptide antibiotic (UPA) derivatives, their synthesis and use” (Essential Therapeutics, Inc., priority 1999, dated 2002).
